From patent US10538555B2, “Macrocyclic inhibitors of the PD-1/PD-L1 and CD80(B7-1)/PD-L1 protein/protein interactions” (BRISTOL-MYERS SQUIBB COMPANY, priority 2014, dated 2020) come the findings set out here.

Each structure is given as a SMILES string. Where a SMILES comes first, the peptide text is derived from it. Bridges are numbered along the chain shown (N, C = ends). [ ]: non-standard residue; d: D form. ξ: configuration not given here. Trp(1-CH2COOH) = N[C@@H](Cc1cn(CC(=O)O)c2ccccc12)C(=O)O; Trp(βS-Me) = C[C@@H](c1c[nH]c2ccccc12)[C@H](N)C(=O)O; Phe(3,4,5-F3) = N[C@@H](Cc1cc(F)c(F)c(F)c1)C(=O)O; Phe(3,4-F2) = N[C@@H](Cc1ccc(F)c(F)c1)C(=O)O; Phe(4-F) = N[C@@H](Cc1ccc(F)cc1)C(=O)O; ξαMeW = CC(N)(Cc1c[nH]c2ccccc12)C(=O)O; d(cisHyp) = O=C(O)[C@H]1C[C@@H](O)CN1; Hyp = O=C(O)[C@@H]1C[C@@H](O)CN1; NMeF = CN[C@@H](Cc1ccccc1)C(=O)O; dNMeF = CN[C@H](Cc1ccccc1)C(=O)O; dHyp = O=C(O)[C@H]1C[C@H](O)CN1; NMeNle = CCCC[C@H](NC)C(=O)O; hSer = N[C@@H](CCO)C(=O)O; NMeA = CN[C@@H](C)C(=O)O; Orn = NCCC[C@H](N)C(=O)O; Dab = NCC[C@H](N)C(=O)O; Dap = NC[C@H](N)C(=O)O; ξC = NC(CS)C(=O)O; Sar = CNCC(=O)O

T1 sequence (Q9NZQ7 with tags, fused parts or gaps): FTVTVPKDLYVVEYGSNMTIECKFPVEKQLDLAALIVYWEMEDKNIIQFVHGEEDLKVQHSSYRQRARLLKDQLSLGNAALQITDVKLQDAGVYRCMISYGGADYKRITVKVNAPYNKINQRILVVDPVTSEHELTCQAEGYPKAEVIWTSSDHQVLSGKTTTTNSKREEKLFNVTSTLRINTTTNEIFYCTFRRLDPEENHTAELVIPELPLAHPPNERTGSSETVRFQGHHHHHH

The first test has as its target T1, Human PD-L1/PD-1 (Homo sapiens, UniProt Q9NZQ7).
T1 construct: TVMV protease cleavage site (C); made in house; host or cells: HEK293T cells
As to the kind of experiment: HTRF Human PD-L1/PD-1 binding assay (PD-1-Ig/PD-L1-His). The conditions noted are these: PD-L1-His 10 nM, PD-1-Ig 20 nM; class symbol; read-out: HTRF Human PD-L1/PD-1 Binding Assay IC50 Range. The gist of the method:
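Soluble HEK293T-expressed proteins: hPD-L1-His 10 nM, hPD-1-Ig 20 nM final. Cpd + PD-L1 15 min, + PD-1 15 min, + Eu anti-Ig 1 nM/APC anti-His 20 nM 30 min. Buffer dPBS, 0.1% BSA, 0.05% Tween-20. TR-FRET 665/620.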
In general terms: In TR-FRET formats the signal depends on donor and acceptor labels being close together.
Turning to `CCCC[C@H]1C(=O)N(C)[C@@H](CCCC)C(=O)N[C@@H](CCCNC(=N)N)C(=O)N[C@H](C(=O)NCC(N)=O)CSCC(=O)N[C@@H](Cc2ccc(F)cc2)C(=O)N(C)[C@@H](C)C(=O)N[C@@H](CC(N)=O)C(=O)N2CCC[C@H]2C(=O)N[C@@H](Cc2cnc[nH]2)C(=O)N[C@@H](CCC(=O)O)C(=O)N2C[C@H](O)C[C@H]2C(=O)N[C@@H](Cc2c[nH]c3ccccc23)C(=O)N[C@@H](CO)C(=O)N[C@@H](Cc2c[nH]c3ccccc23)C(=O)N1C` [Example 7082] ({CH2CO}-[Phe(4-F)][NMeA]NPHE[Hyp]WSW[NMeNle][NMeNle]RCG-NH2; thioether N-14), the IC50 was 1 to 9.9 nM.

Turning to `CCCC[C@H]1C(=O)N(C)[C@@H](CCCC)C(=O)N[C@@H](CC(C)C)C(=O)N[C@H](C(=O)NCC(N)=O)CSCC(=O)N[C@@H](Cc2ccc(OC)cc2)C(=O)N(C)[C@@H](C)C(=O)N[C@@H](CC(=O)O)C(=O)N2CCC[C@H]2C(=O)N[C@@H](Cc2cnc[nH]2)C(=O)N[C@@H](CCCCN)C(=O)N2C[C@H](O)C[C@@H]2C(=O)N[C@@H](Cc2c[nH]c3ccccc23)C(=O)N[C@@H](CCCCN)C(=O)N[C@@H](Cc2cn(CC(=O)O)c3ccccc23)C(=O)N1C` [Example 7154] ({CH2CO}-Y(Me)[NMeA]DPHK[d(cisHyp)]WK[Trp(1-CH2COOH)][NMeNle][NMeNle]LCG-NH2; thioether N-14), the IC50 was in the range of 10 to 99.9 nM.

Regarding `CCCC[C@H]1C(=O)N2C[C@@H](O)C[C@@H]2C(=O)N[C@@H](CC(=O)O)C(=O)N[C@@H](C(C)C)C(=O)N(C)[C@@H](Cc2ccccc2)C(=O)N[C@@H](Cc2ccc(O)cc2)C(=O)N2C[C@@H](O)C[C@@H]2C(=O)N[C@@H](Cc2c[nH]c3ccccc23)C(=O)N[C@@H](Cc2ccc(O)cc2)C(=O)N[C@@H](CC(C)C)C(=O)N[C@H](C(=O)NCC(N)=O)CSCC(=O)N[C@@H](Cc2ccc(F)c(F)c2)C(=O)N(C)[C@@H](Cc2ccccc2)C(=O)N1C` [Example 9227] ({CH2CO}-[Phe(3,4-F2)][NMeF][NMeNle][dHyp]DV[NMeF]Y[dHyp]WYLCG-NH2; thioether N-13), the IC50 was 1 to 9.9 nM.

With `CCCC[C@H]1C(=O)N2C[C@H](O)C[C@@H]2C(=O)N[C@@H](CC(=O)O)C(=O)N[C@@H](C(C)C)C(=O)N(C)[C@@H](Cc2ccccc2)C(=O)N[C@@H](CCCCN)C(=O)N2C[C@H](O)C[C@@H]2C(=O)N[C@@H](Cc2c[nH]c3ccccc23)C(=O)N[C@@H](Cc2ccc(O)cc2)C(=O)N[C@@H](CC(C)C)C(=O)N[C@H](C(=O)NCC(N)=O)CSCC(=O)N[C@@H](Cc2ccc(F)c(F)c2)C(=O)N(C)[C@@H](Cc2ccccc2)C(=O)N1C` [Example 9294] ({CH2CO}-[Phe(3,4-F2)][NMeF][NMeNle][d(cisHyp)]DV[NMeF]K[d(cisHyp)]WYLCG-NH2; thioether N-13), the IC50 is 1 to 9.9 nM.

Regarding `CCCC[C@H]1C(=O)N(C)[C@@H](CCCC)C(=O)N[C@@H](CN)C(=O)N[C@H](C(=O)NCC(N)=O)CSCC(=O)N[C@@H](Cc2ccc(O)cc2)C(=O)N(C)[C@@H](C)C(=O)N[C@@H](CC(=O)O)C(=O)N2CCC[C@H]2C(=O)N[C@@H](CN)C(=O)N[C@@H](CCC(=O)O)C(=O)N2C[C@H](O)C[C@H]2C(=O)N[C@@H](Cc2c[nH]c3ccccc23)C(=O)N[C@@H](CCN)C(=O)N[C@@H](Cc2cn(CC(=O)O)c3ccccc23)C(=O)N1C` [Example 5176] ({CH2CO}-Y[NMeA]DP[Dap]E[Hyp]W[Dab][Trp(1-CH2COOH)][NMeNle][NMeNle][Dap]CG-NH2; thioether N-14), the IC50 lay within 1 to 9.9 nM.

With `CCCC[C@H]1C(=O)N(C)[C@@H](CCCC)C(=O)N[C@@H](C)C(=O)N[C@H](C(=O)NCC(N)=O)CSCC(=O)N[C@@H](Cc2ccc(O)cc2)C(=O)N(C)[C@@H](C)C(=O)N[C@@H](CC(=O)O)C(=O)N2CCC[C@H]2C(=O)N[C@@H](Cc2cnc[nH]2)C(=O)N[C@@H](CCCCN)C(=O)N2C[C@H](O)C[C@H]2C(=O)N[C@@H](Cc2c[nH]c3ccccc23)C(=O)N[C@@H](CO)C(=O)N[C@@H](Cc2c[nH]c3ccccc23)C(=O)N1C` [Example 1247] ({CH2CO}-Y[NMeA]DPHK[Hyp]WSW[NMeNle][NMeNle]ACG-NH2; thioether N-14), the IC50 lay in the range of 10 to 99.9 nM.

As to `CCCC[C@H]1C(=O)N2C[C@H](O)C[C@@H]2C(=O)N[C@@H](CC(=O)O)C(=O)N[C@@H](C(C)C)C(=O)N(C)[C@@H](Cc2ccccc2)C(=O)N[C@@H](Cc2ccc(O)cc2)C(=O)N2CCC[C@@H]2C(=O)N[C@@H](Cc2c[nH]c3ccccc23)C(=O)N[C@@H](Cc2ccc(O)cc2)C(=O)N[C@@H](CCO)C(=O)N[C@H](C(=O)NCC(N)=O)CSCC(=O)N[C@@H](Cc2cc(F)c(F)c(F)c2)C(=O)N(C)[C@@H](Cc2ccccc2)C(=O)N1C` [Example 10153] ({CH2CO}-[Phe(3,4,5-F3)][NMeF][NMeNle][d(cisHyp)]DV[NMeF]Y[dP]WY[hSer]CG-NH2; thioether N-13), the IC50 is 1 to 9.9 nM.

Consider `CCCC[C@H]1C(=O)N(C)[C@@H](CCCC)C(=O)N[C@@H](CCCN)C(=O)NC(C(=O)NCC(N)=O)CSCC(=O)N[C@@H](Cc2ccc(O)cc2)C(=O)N(C)[C@@H](C)C(=O)N[C@@H](CC(N)=O)C(=O)N2CCC[C@H]2C(=O)N[C@@H](CC(N)=O)C(=O)N[C@@H](CC(C)C)C(=O)N2CCC[C@H]2C(=O)N[C@@H](Cc2c[nH]c3ccccc23)C(=O)N[C@@H](CO)C(=O)N[C@@H](Cc2c[nH]c3ccccc23)C(=O)N1C` (some centres unmarked) [Example 9155] ({CH2CO}-Y[NMeA]NPNLPWSW[NMeNle][NMeNle][Orn][ξC]G-NH2; thioether N-14), for which the IC50 is 1 to 9.9 nM.

For the compound `CCCC[C@H]1C(=O)N(C)[C@@H](CCCC)C(=O)N[C@@H](CCC(=O)O)C(=O)N[C@H](C(=O)NCC(N)=O)CSCC(=O)N[C@@H](Cc2ccc(OC)cc2)C(=O)N(C)[C@@H](C)C(=O)N[C@@H](CCN)C(=O)N2CCC[C@H]2C(=O)N[C@@H](CN)C(=O)N[C@@H](CCC(=O)O)C(=O)N2C[C@H](O)C[C@H]2C(=O)N[C@@H](Cc2c[nH]c3ccccc23)C(=O)N[C@@H](CCN)C(=O)N[C@@H](Cc2c[nH]c3ccccc23)C(=O)N1C` [Example 7112] ({CH2CO}-Y(Me)[NMeA][Dab]P[Dap]E[Hyp]W[Dab]W[NMeNle][NMeNle]ECG-NH2; thioether N-14), the IC50 was 1 to 9.9 nM.

Turning to `CCCC[C@H]1C(=O)N2CCC[C@@H]2C(=O)N[C@@H](CC(=O)O)C(=O)N[C@@H](C(C)C)C(=O)N(C)[C@@H](Cc2ccccc2)C(=O)N[C@@H](Cc2ccc(O)cc2)C(=O)N2CCC[C@@H]2C(=O)N[C@@H](Cc2c[nH]c3ccccc23)C(=O)N[C@@H](Cc2ccc(O)cc2)C(=O)N[C@@H](CCCCN)C(=O)N[C@H](C(=O)NCC(N)=O)CSCC(=O)N[C@@H](Cc2cc(F)c(F)c(F)c2)C(=O)N(C)[C@@H](Cc2ccccc2)C(=O)N1C` [Example 10096] ({CH2CO}-[Phe(3,4,5-F3)][NMeF][NMeNle][dP]DV[NMeF]Y[dP]WYKCG-NH2; thioether N-13), the IC50 lay within 1 to 9.9 nM.

Take `CCCC[C@H]1C(=O)N(C)[C@@H](CCCC)C(=O)N[C@@H](CC(C)C)C(=O)N[C@H](C(=O)NCC(N)=O)CSCC(=O)N[C@@H](Cc2ccc(OC)cc2)C(=O)N(C)[C@@H](C)C(=O)N[C@@H](CC(N)=O)C(=O)N2CCC[C@H]2C(=O)N[C@@H](CO)C(=O)N[C@@H](CCC(N)=O)C(=O)N2C[C@H](O)C[C@H]2C(=O)N[C@@H](Cc2c[nH]c3ccccc23)C(=O)N[C@@H](CO)C(=O)N[C@@H](Cc2cn(CC(=O)O)c3ccccc23)C(=O)N1C` [Example 7142] ({CH2CO}-Y(Me)[NMeA]NPSQ[Hyp]WS[Trp(1-CH2COOH)][NMeNle][NMeNle]LCG-NH2; thioether N-14): the IC50 was 1 to 9.9 nM.

As to `CCCC[C@H]1C(=O)N(C)[C@@H](CCCC)C(=O)N[C@@H](CC(C)C)C(=O)N[C@H](C(N)=O)CSCC(=O)N[C@@H](Cc2ccc(O)cc2)C(=O)N(C)[C@@H](C)C(=O)N[C@@H](CC(N)=O)C(=O)N2CCC[C@H]2C(=O)N[C@@H](CN)C(=O)N[C@@H](CC(C)C)C(=O)N2C[C@H](O)C[C@H]2C(=O)N[C@@H]([C@@H](C)c2c[nH]c3ccccc23)C(=O)N[C@@H](CO)C(=O)N[C@@H](Cc2c[nH]c3ccccc23)C(=O)N1C` [Example 10532] ({CH2CO}-Y[NMeA]NP[Dap]L[Hyp][Trp(βS-Me)]SW[NMeNle][NMeNle]LC-NH2; thioether N-14), the IC50 lay within 1 to 9.9 nM.

`CCCC[C@H]1C(=O)N(C)CC(=O)N[C@@H](CC(=O)O)C(=O)N[C@@H](C(C)C)C(=O)N[C@@H](Cc2ccccc2)C(=O)N[C@@H](Cc2ccc(O)cc2)C(=O)N(C)CC(=O)NC(C)(Cc2c[nH]c3ccccc23)C(=O)N[C@@H](Cc2ccc(O)cc2)C(=O)N[C@@H](CC(C)C)C(=O)N[C@H](C(=O)NCC(N)=O)CSCC(=O)N[C@@H](Cc2ccccc2)C(=O)N(C)[C@@H](Cc2ccccc2)C(=O)N1C` (some centres unmarked) [Example 3639] ({CH2CO}-F[NMeF][NMeNle][Sar]DVFY[Sar][ξαMeW]YLCG-NH2; thioether N-13): the IC50 lay within 1000 to 10000 nM.

The test is the same for the next values; noted with them: PD-L1-His 10 nM, PD-1-Ig 20 nM; read-out: HTRF Human PD-L1/PD-1 Binding Assay IC50.
For `CCCC[C@H]1C(=O)N2C[C@H](O)C[C@@H]2C(=O)N[C@@H](CC(=O)O)C(=O)N[C@@H](C(C)C)C(=O)N(C)[C@H](Cc2ccccc2)C(=O)N[C@@H](CCC(=O)O)C(=O)N2C[C@H](O)C[C@@H]2C(=O)N[C@@H](Cc2c[nH]c3ccccc23)C(=O)N[C@@H](Cc2ccc(O)cc2)C(=O)N[C@@H](CCC(=O)O)C(=O)N[C@H](C(=O)NCC(N)=O)CSCC(=O)N[C@@H](Cc2ccc(F)c(F)c2)C(=O)N(C)[C@@H](Cc2ccccc2)C(=O)N1C` [Example 9313] ({CH2CO}-[Phe(3,4-F2)][NMeF][NMeNle][d(cisHyp)]DV[dNMeF]E[d(cisHyp)]WYECG-NH2; thioether N-13), the IC50 is 2.7 nM.
